Measured values published in patent EP1137645B1, “ALPHA-METHYLBENZYL-CONTAINING THIOUREA INHIBITORS OF HERPES VIRUSES CONTAINING A […] GROUP” (Wyeth, priority 1998, dated 2000).
Values after ≈ are worked out from the molar mass of the structure shown. Read-outs that look alike come from different tables or passages of the source.

Key:
[1] = system: VZV strain Ellen; experiment: VZV antiviral (ELISA) assay; type: cell-based
How it was run: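 HFF cells infected with VZV Ellen at multiplicity below 0.1 overnight, then mixed infected/uninfected cells seeded with compound in DMEM/2% FBS and incubated three days at 37°C, 5% CO2.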

[2] = system: HCMV recombinant mutant virus whose genome contains the prokaryotic beta-glucuronidase gene; experiment: microbe, parasite or virus in culture; type: cell-based, human cytomegalovirus; settings: Human betaherpesvirus 5, Fibroblast
How it was run: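 Human foreskin fibroblasts infected with HCMV recombinant carrying beta-glucuronidase under a viral promoter (e.g. RV145) in presence of compound. At 96 h post-infection, lysates assayed for beta-glucuronidase by colorimetric or fluorogenic substrate as replication readout; IC50 estimated from varying compound amounts.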

[3] = system: HSV- I; experiment: HSV antiviral (ELISA) assay; type: cell-based; settings: read-out: IC50 (ug/ml) HSV
How it was run: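 Vero cells in DMEM with 2% FBS treated with compound 30 min before HSV-1 infection (MOI 0.006), then incubated ~24 h at 37°C. Viral replication measured by ELISA against glycoprotein D with β-galactosidase-linked secondary and fluorogenic substrate (ex 365/em 450 nm); IC50 relative to untreated fluorescence.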

[4] = Human alphaherpesvirus 3, VZV strain Ellen, HFF cells, ELISA, read-out: IC50 (ug/ml) VZV
[5] = Human alphaherpesvirus 3, HFF, read-out: % inhibition 10 ug/ml VZV
[6] = Human alphaherpesvirus 3, HFF, read-out: IC50 (ug/ml) VZV
[7] = read-out: IC50 ug/ml HCMV, HCMV, human foreskin fibroblasts
[8] = Human alphaherpesvirus 3, HFF, read-out: IC50 (ug/ml) VZV, VZV strain Ellen, HFF cells, ELISA

Q: Which inhibition at 10 µg/mL ([1]; Human alphaherpesvirus 3, read-out: % inhibition 10 ug/ml VZV, 10 ug/ml, VZV strain Ellen, HFF cells, ELISA) does the source give for `COc1cccc(NC(=S)Nc2ccc(NC(=O)c3ccccc3F)cc2)c1` [Example 487, 2-Fluoro-N-{4-[3-(3-methoxy-phenyl)-thioureido]-phenyl}-benzamide] here?
A: Its inhibition at 10 µg/mL is 48%.

Q: What about the IC50 [1, 4] of the same compound?
A: Its IC50 is > 10 µg/mL.

Q: What about the IC50 ([2]; read-out: IC50 ug/ml HCMV) of the same compound?
A: The IC50 was 10 µg/mL (≈ 25.3 µM).

Q: What about the IC50 ([3]; HSV- I, Vero cells, ELISA) of the same compound?
A: Its IC50 is 4 µg/mL (≈ 10.1 µM).

Q: How did the inhibition at 10 µg/mL [1, 5] turn out when `CN1CCC(N(C)c2ccc(NC(=S)Nc3ccc(NC(=O)c4ccccc4F)cc3)cc2Cl)C1` (stereo not shown) [Example 332, N-[4-(3-{3-Chloro-4-[methyl-(1-methyl-pyrrolidin-3-yl)-amino]-phenyl}-thioureido)-phenyl]-2-fluoro-benzamide] was run?
A: The inhibition at 10 µg/mL was 90%.

Q: And the IC50 [1, 6]?
A: The IC50 was 8 µg/mL (≈ 15.6 µM).

Q: What about the IC50 [2, 7] of the same compound?
A: Its IC50 is 0.9 µg/mL (≈ 1.76 µM).

Q: And the IC50 ([3]; HSV- I, Vero cells, ELISA)?
A: The IC50 was 1 µg/mL (≈ 1.95 µM).

Q: Which inhibition at 10 µg/mL [1, 5] does the source give for `COc1cc(OC)c(NC(=S)Nc2ccc(NC(=O)c3cccc(NC(C)=O)c3)cc2)cc1Cl` [Example 134, 3-Acetylamino-N-{4-[3-(5-chloro-2,4-dimethoxy-phenyl)-thioureido]-phenyl}-benzamide] here?
A: The inhibition at 10 µg/mL was 50%.

Q: What about the IC50 [1, 6] of the same compound?
A: The IC50 was > 10 µg/mL.

Q: What about the IC50 [2, 7] of the same compound?
A: Its IC50 is 4 µg/mL (≈ 8.02 µM).

Q: What about the IC50 ([3]; HSV- I, Vero cells, ELISA) of the same compound?
A: Its IC50 is > 10 µg/mL.

Q: What does the source list for `C[C@H](NC(=S)Nc1ccc(NC(=O)c2ccccc2F)cc1)c1ccccc1` [Example 1013, 2-Fluoro-N-{4-[3-((1S)-1-phenyl-ethyl)-thioureido]-phenyl}-benzamide]?
A: IC50 [1, 4]: 0.27 µg/mL (≈ 0.686 µM); IC50 ([2]; read-out: IC50 ug/ml HCMV): 8.2 µg/mL (≈ 20.8 µM); IC50 ([3]; HSV- I, Vero cells, ELISA): > 10 µg/mL

Q: What does the source list for `CN(c1ccc(NC(=S)Nc2ccc(NC(=O)c3ccccc3F)cc2)cc1Cl)C1CCCCC1` [Example 238, N-(4-{3-[3-Chloro-4-(cyclohexyl-methyl-amino)-phenyl]-thioureido}-phenyl)-2-fluoro-benzamide]?
A: inhibition at 10 µg/mL [1, 5]: 38%; IC50 [1, 6]: > 10 µg/mL; IC50 [2, 7]: > 10 µg/mL; IC50 ([3]; HSV- I, Vero cells, ELISA): > 10 µg/mL

Q: For `CCCCC(NC(=S)Nc1ccc(NC(=O)c2ccccc2F)cc1)c1ccc(F)cc1` (stereo not shown) [Example 773, 2-Fluoro-N-(4-{3-[1-(4-fluoro-phenyl)-pentyl]-thioureido}-phenyl)-benzamide], which IC50 [1, 8] is on record?
A: The IC50 was > 7.5 µg/mL.

Q: And the IC50 [2, 7]?
A: The IC50 was 1.2 µg/mL (≈ 2.65 µM).

Q: What about the IC50 ([3]; Vero) of the same compound?
A: The IC50 was > 10 µg/mL.

Q: How did the IC50 [1, 4] turn out when `CC(NC(=S)Nc1ccc(NC(=O)c2ccccc2F)cc1)c1ccc(F)cc1` (stereo not shown) [Example 591, 2-Fluoro-N-(4-{3-[1-(4-fluoro-phenyl)-ethyl]-thioureido}-phenyl)-benzamide] was run?
A: The IC50 was 1.5 µg/mL (≈ 3.65 µM).

Q: And the IC50 ([2]; read-out: IC50 ug/ml HCMV)?
A: Its IC50 is 7 µg/mL (≈ 17 µM).

Q: What about the IC50 ([3]; HSV- I, Vero cells, ELISA) of the same compound?
A: Its IC50 is > 10 µg/mL.

Q: `CSc1ccc(NC(=S)Nc2ccc(NC(=O)c3c(F)cccc3F)cc2)cc1Cl` [Example 848, N-{4-[3-(3-Chloro-4-methylsulfanyl-phenyl)-thioureido]-phenyl}-2,6-difluoro-benzamide] was tested. Which inhibition at 10 µg/mL [1, 5] did it give?
A: Its inhibition at 10 µg/mL is 101%.

Q: And the IC50 [1, 6]?
A: Its IC50 is 1.3 µg/mL (≈ 2.8 µM).

Q: And the IC50 [2, 7]?
A: Its IC50 is 0.3 µg/mL (≈ 0.647 µM).

Q: And the IC50 ([3]; HSV- I, Vero cells, ELISA)?
A: Its IC50 is 0.085 µg/mL (≈ 0.183 µM).

Q: Which inhibition at 10 µg/mL [1, 5] does the source give for `COc1cc(OC)c(NC(=S)Nc2ccc(NC(=O)c3ccccc3F)cc2)cc1Br` [Example 827, N-{4-[3-(5-Bromo-2,4-dimethoxy-phenyl)-thioureido]-phenyl}-2-fluoro-benzamide] here?
A: Its inhibition at 10 µg/mL is 70%.

Q: What about the IC50 [1, 6] of the same compound?
A: The IC50 was 3.5 µg/mL (≈ 6.94 µM).

Q: What about the IC50 [2, 7] of the same compound?
A: The IC50 was 10 µg/mL (≈ 19.8 µM).

Q: What about the IC50 ([3]; HSV- I, Vero cells, ELISA) of the same compound?
A: Its IC50 is 0.2 µg/mL (≈ 0.397 µM).

Q: For `COc1cccc(C(=O)Nc2ccc(NC(=S)Nc3ccc(N(C)C4CCCCC4)c(Cl)c3)cc2)c1` [Example 250, N-(4-{3-[3-Chloro-4-(cyclohexyl-methyl-amino)-phenyl]-thioureido}-phenyl)-3-methoxy-benzamide], which inhibition at 10 µg/mL [1, 5] is on record?
A: The inhibition at 10 µg/mL was 42%.

Q: And the IC50 [1, 6]?
A: The IC50 was > 10 µg/mL.

Q: And the IC50 [2, 7]?
A: Its IC50 is > 10 µg/mL.

Q: What about the IC50 ([3]; HSV- I, Vero cells, ELISA) of the same compound?
A: Its IC50 is > 10 µg/mL.

Q: For `Cc1ccccc1C(=O)Nc1ccc(NC(=S)Nc2ccc(N(C)C3CCCCC3)c(Cl)c2)cc1` [Example 247, N-(4-{3-[3-Chloro-4-(cyclohexyl-methyl-amino)-phenyl]-thioureido}-phenyl)-2-methyl-benzamide], which inhibition at 10 µg/mL [1, 5] is on record?
A: The inhibition at 10 µg/mL was 74%.

Q: And the IC50 [1, 6]?
A: The IC50 was 5 µg/mL (≈ 9.86 µM).

Q: What about the IC50 [2, 7] of the same compound?
A: The IC50 was > 10 µg/mL.

Q: What about the IC50 ([3]; HSV- I, Vero cells, ELISA) of the same compound?
A: The IC50 was > 10 µg/mL.

Q: Which results are given for `Cc1ccccc1C(=O)Nc1ccc(NC(=S)Nc2ccc(N(C)C)c(Cl)c2)cc1` [Example 346, N-{4-[3-(3-Chloro-4-dimethylamino-phenyl)-thioureido]-phenyl}-2-methyl-benzamide]?
A: inhibition at 10 µg/mL [1, 5]: 62%; IC50 [1, 6]: > 10 µg/mL; IC50 [2, 7]: 2 µg/mL (≈ 4.56 µM); IC50 ([3]; HSV- I, Vero cells, ELISA): 6 µg/mL (≈ 13.7 µM)

Q: Which inhibition at 10 µg/mL [1, 5] does the source give for `COc1cc(OC)c(NC(=S)Nc2ccc(NC(=O)c3cc(F)ccc3F)cc2)cc1Cl` [Example 187, N-{4-[3-(5-Chloro-2,4-dimethoxy-phenyl)-thioureido]-phenyl}-2,5-difluoro-benzamide] here?
A: The inhibition at 10 µg/mL was 53%.

Q: What about the IC50 [1, 6] of the same compound?
A: The IC50 was > 10 µg/mL.

Q: What about the IC50 [2, 7] of the same compound?
A: The IC50 was > 10 µg/mL.

Q: And the IC50 ([3]; HSV- I, Vero cells, ELISA)?
A: The IC50 was 0.2 µg/mL (≈ 0.418 µM).

Q: For `O=C(Nc1ccc(NC(=S)NCCCc2ccccc2)cc1)c1ccccc1F` [Example 628, 2-Fluoro-N-{4-[3-(3-phenyl-propyl)-thioureido]-phenyl}-benzamide], which IC50 [1, 8] is on record?
A: The IC50 was 10 µg/mL (≈ 24.5 µM).

Q: What about the IC50 [2, 7] of the same compound?
A: The IC50 was > 10 µg/mL.

Q: What about the IC50 ([3]; Vero) of the same compound?
A: Its IC50 is > 10 µg/mL.
